Measurements as given in patent publication US20130202646A1, “COMPOSITIONS AND METHODS FOR MODULATING AUTOPHAGY” (SAN DIEGO STATE UNIVERSITY (SDSU) FOUNDATION, priority 2010, published 2013).

How the values were obtained:
adult rat cardiomyocytes [1] = assay: Autophagy (GFP-LC3 puncta) in adult rat cardiomyocytes; type: cell-based
[2] = system: mCherry-LC3 transgenic mice; assay: Induction of autophagy in vivo in hearts of mCherry-LC3 transgenic mice
[3] = system: isolated perfused rat hearts; assay: Langendorff global ischemia/reperfusion injury in isolated perfused rat hearts (CK release, TTC infarct size, hemodynamics)
[4] = system: isolated perfused rat hearts; assay: Autophagy in isolated perfused rat hearts (LC3-II/LC3-I Western blot, cadaverine dye binding)
PKC δ = assay: PKC delta translocation/redistribution in perfused rat heart and adult rat cardiomyocytes; type: cell-based
PKC epsilon = PKC epsilon translocation in perfused rat heart; type: cell-based; details: after SUL administration
Method: Subcellular fractionation. Frozen heart samples were thawed on ice in homogenization buffer containing (in mmol/L): Tris-HCL 20, EDTA 2, EGTA 10, PMSF 1, leupeptin 0.1, E-64 0.01, and sucrose 250). The tissue was then minced and Plytron homogenized (Kinematica, Basel, Switzerland) on ice for 15s for three passes. The homogenates were centrifuged at 600 g for 5 min at 4° C, and the crude supernatants were further centrifuged at 10,000 g for 10 min 4° C. The supernatant, designated as crude cytosol, was divided and one fraction was further centrifuged at 100,000 g for 1 h at 4° C. The resulting supernatant was designated as cytosolic fraction. The pellet was resuspended in homogenization buffer with 1% TritonX-100, incubated on ice for 1 h, then centrifuged at 100,000 g for 1 h at 4° C. The resulting supernatant was designated as the particulate fraction. Samples were stored at −80° C. until use. Western blot analysis. Proteins prepared from rat hearts were quantified by Bio-Rad protein assay. For immunodetection, 50 μg of crude cytosol prepared as above were resolved on SDS-PAGE 10% denaturing gels and transferred to PVDF nylon membranes. The membranes were blocked with 5% nonfat dry milk in TNT buffer (in mM: NaCl 100, Tris·HCl 10 (pH 7.4), and 0.1% Tween-20) for 1 h. […] To quantify the protein, intensity of bands was assessed with Scion Image Software.

HL-1 cells [5] = assay: Autophagy scored by intracellular distribution of GFP-LC3 (fluorescence microscopy) in HL-1 cells; type: cell-based, murine; details: for effect on upregulation/induction of autophagy by CCPA: inhibitor pretreatment, then CCPA, normoxic, before ischemia
HL-1 cells [6] = assay: Cell death by LDH release after simulated ischemia/reperfusion (sI/R) in HL-1 cells; type: cell-based, murine; details: for effect on cytoprotection by CCPA (LDH release): inhibitor plus CCPA, then sI/R (2 hr sI, 3 hr R)
Method: Cells of the murine atrial-derived cardiac cell line HL-1^16 were plated in gelatin/fibronectin-coated culture vessels and maintained in Claycomb medium^16 (JRH Biosciences, Lenexa, Kans.) supplemented with 10% fetal bovine serum, 0.1 mm norepinephrine, 2 mm […], 100 U·mL^-1 penicillin, 100 U·mL^-1 streptomycin, and 0.25 μg·mL^-1 amphotericin B. Cells were plated in 14-mm diameter glass bottom microwell dishes (MatTek), and ischemia was introduced by a buffer exchange to ischemia-mimetic solution (in mM: 20deoxyglucose, 125 NaCl, 8 KCl, 1.2 KH2PO4, 1.25 MgSO4, 1.2 CaCl2, 6.25 NaHCO2, 5 sodium lactate, 20 HEPES, pH 6.6) and placing the dishes in hypoxic pouches (GasPakTM EZ, BD Biosciences) equilibrated with 95% N2, 5% CO2. After 2 hr of simulated ischemia, reperfusion was initiated by a buffer exchange to normoxic MKH buffer and incubation at 95% room air, 5% CO2. Controls incubated in normoxic MKH buffer were run in parallel for each condition for periods of time that corresponded with those of the experimental groups. […] The cell cultures were washed with PBS prior to the experimental treatment. Protein content and LDH activity were determined according to El-Ani et al.^20. Briefly, 25 μl supernatants from 35 mm dishes were transferred into wells of a 96-well plate, and the LDH activities were determined with an LDH-L kit (Sigma), according to the manufacturer. The product of the enzyme was measured spectrophotometrically at 30° C. at a wavelength of 340 nm as described previously^21. The results were expressed relative to the control (X-fold) in the same experiment. Each experiment was done in triplicate and was repeated at least three times.

HL-1 cells [7] = assay: Cell death by propidium iodide uptake after sI/R in HL-1 cells; type: cell-based, murine; details: 100 nM CCPA 10 min before sI/R; end of reperfusion
Method: Cells were plated in 14-mm diameter glass bottom microwell dishes (MatTek), and ischemia was introduced by a buffer exchange to ischemia-mimetic solution (in mM: 20deoxyglucose, 125 NaCl, 8 KCl, 1.2 KH2PO4, 1.25 MgSO4, 1.2 CaCl2, 6.25 NaHCO2, 5 sodium lactate, 20 HEPES, pH 6.6) and placing the dishes in hypoxic pouches (GasPakTM EZ, BD Biosciences) equilibrated with 95% N2, 5% CO2. After 2 hr of simulated ischemia, reperfusion was initiated by a buffer exchange to normoxic MKH buffer and incubation at 95% room air, 5% CO2. Controls incubated in normoxic MKH buffer were run in parallel for each condition for periods of time that corresponded with those of the experimental groups. Cells were stained immediately after sI/R with propidium iodide (5 μg/ml), which stains nuclei of cells whose plasma membranes have become permeable because of cell damage. The assay was performed according to […] et al.^22. For counterstaining we used Hoechst 33342 (10 μM), which stains the nuclei of all cells.

adult rat cardiomyocytes [8] = details: CCPA 10 min before simulated ischemia (FIG. 7B)
[9] = system: neonatal rat cardiomyocytes; assay: Autophagosomes (GFP-LC3) in neonatal rat cardiomyocytes; details: 100 nM CCPA, 10 min
Method: To analyze the number of GFP-LC3 puncta in population, cells were inspected at 60× magnification and classified as: (a) cells with predominantly diffuse GFP-LC3 fluorescence; or as (b) cells with numerous GFP-LC3 puncta (>30 dots/cell), representing autophagosomes. At least 200 cells were scored for each condition in three or more independent experiments.
(A) GFP-LC3 transfected HL-1 cells were treated for 120 min in full medium (FM) with various concentrations (0.001-10 μM) of CCPA. (B) GFP-LC3-transfected HL-1 cells were treated with 100 nM CCPA for the indicated time, then fixed with paraformaldehyde and scored by fluorescence microscopy. […] (D) Representative images of neonatal cardiomyocytes under control conditions or 10 min after administration of 100 nM CCPA. (E) Representative images of adult cardiomyocytes under control conditions or 10 min after administration of 100 nM CCPA. (F) Transgenic mice expressing mCherry-LC3 under the αMHC promoter received an i.p. injection of saline or 1 mg/kg CCPA, then were sacrificed 30 min later and heart tissue was processed for fluorescence microscopy.

SMILES: Nc1ccc(S(=O)(=O)Nc2ccnn2-c2ccccc2)cc1 [SUL, sulfaphenazole]
- percentage of cells with numerous autophagosomes (adult rat cardiomyocytes [1]; 10 μM SUL, 30 min): significantly increased
- number of autophagosomes in hearts ([2]; SUL 10 mg/kg i.p.): significant increase in the number of autophagosomes
- contractility before ischemia ([3]; 10 μM SUL): no effect
- infarct size (TTC) ([3]; 10 μM SUL from 10 min before ischemia, 30 min ischemia, 120 min reperfusion): reduced infarct size
- recovery of contractile function after I/R ([3]; 10 μM SUL, pre-ischemic administration): about 90 % of pre-ischemic value
- CK release ([3]; 10 μM SUL, coronary effluent, first 15 min of reperfusion): attenuated CK release
- infarct size ([3]; SUL alone, 120 min reperfusion): 5 % of the area at risk
- infarct size (TTC) ([3]; SUL introduced at the onset of reperfusion): the reduction of infarct size was sustained
- infarct size (TTC) ([3]; SUL introduced at the onset of reperfusion, listed as sulfaphenazole): reduces infarct size
- BODIPY-TR-cadaverine incorporation into autophagosomes ([4]; SUL administration (FIG. 15B)): increased
- ratio of LC3-II/I ([4]; SUL perfusion 30 min): doubling
- PKC delta translocation (cytosol to particulate fraction) (PKC δ; Langendorff-perfused heart, 30 min after SUL infusion): translocation of PKC delta to the particulate fraction
- distribution of PKC delta (immunostaining) (PKC δ; adult rat cardiomyocytes, SUL 15 min): much more closely aligned with alpha-actinin
- PKC epsilon translocation (PKC epsilon): did not show a consistent pattern of translocation

SMILES: C/C=C(/C)C(=O)O[C@H]1C(C)=C2[C@H]([C@@H]1OC(=O)CCCCCCC)[C@@](C)(OC(C)=O)C[C@H](OC(=O)CCC)[C@@]1(O)[C@H]2OC(=O)[C@@]1(C)O [thapsigargin]
- effect on upregulation/induction of autophagy by CCPA (HL-1 cells [5]): suprressed the induction of autophagy by CCPA

SMILES: OC[C@H]1O[C@@H](n2cnc3c(NC4CCCC4)nc(Cl)nc32)[C@H](O)[C@@H]1O [CCPA, 2-chloro-N(6)-cyclopentyladenosine]
- percentage of cells with numerous autophagosomes (autophagic flux) (HL-1 cells [5]; 100 nM 10 min, full medium, with or without Bafilomycin A1 (FIG. 2)): increased the percentage of cells with numerous autophagosomes under both steady-state and cumulative conditions
- autophagosomes after sI/R (HL-1 cells [5]; 100 nM 10 min, then 2 hr sI, 3 hr R): Fewer autophagosomes
- extent of autophagy induced by starvation (HL-1 cells [5]; 100 nM 10 min, then starvation in MKH 3 hr): no effect
- autophagy in delayed preconditioning (HL-1 cells [5]; 24 hr after 10 min CCPA and washout, normoxia): upregulated
- repair autophagy at reperfusion in delayed preconditioning (HL-1 cells [5]; 24 hr after 10 min CCPA, then sI/R): less
- persistence of the increase in autophagosomes (HL-1 cells [5]; CCPA 100 nM): at least 300 min
- time to increase in the number of autophagosomes (HL-1 cells [5]; CCPA 100 nM): ≤ 10 min
- induction of autophagy (HL-1 cells [5]; full medium, 0.001-10 μM, 120 min (FIG. 1A)): induced autophagy in a dose-dependent fashion
- LDH release (HL-1 cells [6]; 100 nM CCPA 10 min before sI/R, end of simulated ischemia): diminished LDH release
- uptake of propidium iodide (HL-1 cells [7]): diminished
- autophagy (percentage of cells with numerous puncta) (adult rat cardiomyocytes [1]; CCPA 10 min (FIG. 7A)): induced autophagy
- number of mCherry-LC3-labeled structures in left ventricle cryosections ([2]; CCPA 1 mg/kg i.p., 30 min): a large increase in the number of mCherry-LC3-labeled structures
- cytoprotection (LDH release at end of simulated ischemia) (adult rat cardiomyocytes [8]): conferred cytoprotection
- number of autophagosomes [9]: an increase in the number of autophagosomes

SMILES: CCCn1c(=O)c2[nH]c(C3CCCC3)nc2n(CCC)c1=O [DPCPX]
- effect on upregulation/induction of autophagy by CCPA (HL-1 cells [5]): partially blocked
- effect on autophagy in the second window of protection (HL-1 cells [5]; with CCPA 10 min, washout, 20-24 hr later): blocked the effects of CCPA on autophagy
- effect on cytoprotection by CCPA (LDH release) (HL-1 cells [6]): Cytoprotection was abolished
- effect on cytoprotection by CCPA in the second window of protection (LDH release) (HL-1 cells [6]; with CCPA 10 min, washout, sI/R 20-24 hr later): abolished the cytoprotection by CCPA

SMILES: COc1ccc2c(c[n+](C)c3c4cc5c(cc4ccc23)OCO5)c1OC [chelerythrine]
- effect on SUL-induced increase in cells with numerous autophagosomes (adult rat cardiomyocytes [1]; chelerythrine 5 μM 10 min before 10 μM SUL): suppressed
- infarct size with or without SUL ([3]; chelerythrine 15 min before ischemia): no difference in infarct size whether SUL is present or absent
- effect on autophagy induced by SUL (cadaverine dye binding) ([4]; chelerythrine with SUL): suppressed autophagy induced by SUL

SMILES: CC(=O)OCOC(=O)CN(CC(=O)OCOC(C)=O)c1ccccc1OCCOc1ccccc1N(CC(=O)OCOC(C)=O)CC(=O)OCOC(C)=O [BAPTA-AM]
- effect on upregulation/induction of autophagy by CCPA (HL-1 cells [5]): suprressed the induction of autophagy by CCPA

SMILES: COc1ccc2c(c1)CC[C@@H]1[C@@H]2CC[C@]2(C)[C@@H](NCCCCCCN3C(=O)C=CC3=O)CC[C@@H]12 [U73122]
- autophagy after sI/R (repair autophagy) (HL-1 cells [5]; inhibitor 15 min, then CCPA 10 min, then sI/R): an increase in autophagy after sI/R
- effect on upregulation/induction of autophagy by CCPA (HL-1 cells [5]): PLC is required for CCPA stimulation of autophagy before ischemia
- effect on cytoprotection by CCPA (LDH release) (HL-1 cells [6]): an increase in LDH release
